Experimental data reported in ChEMBL document CHEMBL1201862, “PubChem BioAssay data set” (2004).
Active and inactive are the calls of the source.

Experiments:
Hexokinase = target: T1, Hexokinase (Trypanosoma brucei, UniProt Q38C41); assay: Confirmation assay for inhibitors of Trypanosoma brucei hexokinase 1-Analogue-first series. [Related pubchem assays (depositor defined):AID1430, AID1632, AID2516, AID2560, AID2579, AID2600, AID449725, AID492951]; format: functional
T1 sequence (Q38C41 whole entry): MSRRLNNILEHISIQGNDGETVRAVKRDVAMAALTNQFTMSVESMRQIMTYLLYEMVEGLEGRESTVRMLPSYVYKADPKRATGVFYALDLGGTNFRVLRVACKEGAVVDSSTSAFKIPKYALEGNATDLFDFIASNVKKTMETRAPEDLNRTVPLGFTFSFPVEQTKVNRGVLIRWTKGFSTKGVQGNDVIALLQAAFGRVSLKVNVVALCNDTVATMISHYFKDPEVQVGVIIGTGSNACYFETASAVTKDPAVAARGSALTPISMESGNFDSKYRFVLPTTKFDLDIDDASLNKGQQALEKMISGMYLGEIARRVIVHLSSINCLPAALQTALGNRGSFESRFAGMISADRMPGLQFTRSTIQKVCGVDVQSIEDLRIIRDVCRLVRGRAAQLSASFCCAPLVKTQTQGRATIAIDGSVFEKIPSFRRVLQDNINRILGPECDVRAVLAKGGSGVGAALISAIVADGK

[1] = target: T2, Acyl-homoserine lactone acylase PvdQ (Pseudomonas aeruginosa (strain LESB58), UniProt Q9I194); assay: PvdQ acylase enzyme activity blockers – biochemical, fluorescence, plate reader and imaging, cherry-picks, dose response (AID 493231)
T2 sequence (Q9I194 whole entry): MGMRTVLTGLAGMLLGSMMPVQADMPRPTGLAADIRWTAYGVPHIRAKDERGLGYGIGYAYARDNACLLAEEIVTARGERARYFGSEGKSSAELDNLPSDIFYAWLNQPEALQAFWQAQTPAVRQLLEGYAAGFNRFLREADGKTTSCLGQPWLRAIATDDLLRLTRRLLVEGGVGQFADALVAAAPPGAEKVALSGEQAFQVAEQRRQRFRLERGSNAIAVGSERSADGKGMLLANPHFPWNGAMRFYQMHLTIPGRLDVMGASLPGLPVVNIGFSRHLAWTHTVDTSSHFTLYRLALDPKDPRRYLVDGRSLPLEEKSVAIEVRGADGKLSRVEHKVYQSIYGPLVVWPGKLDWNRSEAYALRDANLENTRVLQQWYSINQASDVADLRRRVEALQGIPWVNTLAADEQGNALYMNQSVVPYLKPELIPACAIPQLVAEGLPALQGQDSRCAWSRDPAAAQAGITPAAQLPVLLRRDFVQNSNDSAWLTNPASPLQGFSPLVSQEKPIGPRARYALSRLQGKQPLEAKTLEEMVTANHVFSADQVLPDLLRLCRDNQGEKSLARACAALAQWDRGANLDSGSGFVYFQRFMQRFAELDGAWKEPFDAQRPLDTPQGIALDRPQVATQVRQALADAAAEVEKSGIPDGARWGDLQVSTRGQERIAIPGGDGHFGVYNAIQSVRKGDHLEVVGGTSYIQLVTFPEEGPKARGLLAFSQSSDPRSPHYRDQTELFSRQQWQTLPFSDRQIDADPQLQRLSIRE

[2] = target: Photoreceptor-specific nuclear receptor (Homo sapiens, UniProt Q9Y5X4); format: functional;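 also: potency for compounds that break the NR2E3 corepressor complex and count as activators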
Chain of Photoreceptor-specific nuclear receptor (Q9Y5X4 whole entry): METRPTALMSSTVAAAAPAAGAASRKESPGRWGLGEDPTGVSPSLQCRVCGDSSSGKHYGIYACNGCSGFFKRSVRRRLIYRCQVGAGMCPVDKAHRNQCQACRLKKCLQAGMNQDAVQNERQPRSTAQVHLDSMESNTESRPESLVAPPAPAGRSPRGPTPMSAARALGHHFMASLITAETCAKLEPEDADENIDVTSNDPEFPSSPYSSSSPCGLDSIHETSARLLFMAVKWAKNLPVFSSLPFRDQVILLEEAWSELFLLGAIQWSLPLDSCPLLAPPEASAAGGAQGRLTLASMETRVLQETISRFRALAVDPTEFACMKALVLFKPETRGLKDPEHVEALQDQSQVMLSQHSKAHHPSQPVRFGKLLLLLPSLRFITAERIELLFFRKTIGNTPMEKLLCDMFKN

[3] = target: Peroxisome proliferator-activated receptor gamma/Nuclear receptor corepressor 2 (Homo sapiens, UniProt P37231+Q9Y618); format: functional
Chain of Peroxisome proliferator-activated receptor gamma/Nuclear receptor corepressor 2 (P37231 whole entry): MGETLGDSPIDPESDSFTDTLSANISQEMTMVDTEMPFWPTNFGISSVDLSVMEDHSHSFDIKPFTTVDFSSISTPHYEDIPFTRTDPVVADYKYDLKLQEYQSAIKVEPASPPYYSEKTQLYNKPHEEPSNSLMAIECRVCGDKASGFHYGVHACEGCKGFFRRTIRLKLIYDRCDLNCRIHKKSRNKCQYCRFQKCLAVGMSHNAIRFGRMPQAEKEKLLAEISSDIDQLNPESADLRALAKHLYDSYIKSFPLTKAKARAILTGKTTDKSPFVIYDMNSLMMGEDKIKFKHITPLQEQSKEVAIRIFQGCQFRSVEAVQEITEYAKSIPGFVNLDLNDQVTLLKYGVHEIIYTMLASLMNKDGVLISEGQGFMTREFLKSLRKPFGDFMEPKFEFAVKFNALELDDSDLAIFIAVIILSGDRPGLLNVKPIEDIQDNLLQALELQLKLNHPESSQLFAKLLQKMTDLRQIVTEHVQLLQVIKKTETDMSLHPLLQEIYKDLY
Chain of Peroxisome proliferator-activated receptor gamma/Nuclear receptor corepressor 2 (Q9Y618 whole entry): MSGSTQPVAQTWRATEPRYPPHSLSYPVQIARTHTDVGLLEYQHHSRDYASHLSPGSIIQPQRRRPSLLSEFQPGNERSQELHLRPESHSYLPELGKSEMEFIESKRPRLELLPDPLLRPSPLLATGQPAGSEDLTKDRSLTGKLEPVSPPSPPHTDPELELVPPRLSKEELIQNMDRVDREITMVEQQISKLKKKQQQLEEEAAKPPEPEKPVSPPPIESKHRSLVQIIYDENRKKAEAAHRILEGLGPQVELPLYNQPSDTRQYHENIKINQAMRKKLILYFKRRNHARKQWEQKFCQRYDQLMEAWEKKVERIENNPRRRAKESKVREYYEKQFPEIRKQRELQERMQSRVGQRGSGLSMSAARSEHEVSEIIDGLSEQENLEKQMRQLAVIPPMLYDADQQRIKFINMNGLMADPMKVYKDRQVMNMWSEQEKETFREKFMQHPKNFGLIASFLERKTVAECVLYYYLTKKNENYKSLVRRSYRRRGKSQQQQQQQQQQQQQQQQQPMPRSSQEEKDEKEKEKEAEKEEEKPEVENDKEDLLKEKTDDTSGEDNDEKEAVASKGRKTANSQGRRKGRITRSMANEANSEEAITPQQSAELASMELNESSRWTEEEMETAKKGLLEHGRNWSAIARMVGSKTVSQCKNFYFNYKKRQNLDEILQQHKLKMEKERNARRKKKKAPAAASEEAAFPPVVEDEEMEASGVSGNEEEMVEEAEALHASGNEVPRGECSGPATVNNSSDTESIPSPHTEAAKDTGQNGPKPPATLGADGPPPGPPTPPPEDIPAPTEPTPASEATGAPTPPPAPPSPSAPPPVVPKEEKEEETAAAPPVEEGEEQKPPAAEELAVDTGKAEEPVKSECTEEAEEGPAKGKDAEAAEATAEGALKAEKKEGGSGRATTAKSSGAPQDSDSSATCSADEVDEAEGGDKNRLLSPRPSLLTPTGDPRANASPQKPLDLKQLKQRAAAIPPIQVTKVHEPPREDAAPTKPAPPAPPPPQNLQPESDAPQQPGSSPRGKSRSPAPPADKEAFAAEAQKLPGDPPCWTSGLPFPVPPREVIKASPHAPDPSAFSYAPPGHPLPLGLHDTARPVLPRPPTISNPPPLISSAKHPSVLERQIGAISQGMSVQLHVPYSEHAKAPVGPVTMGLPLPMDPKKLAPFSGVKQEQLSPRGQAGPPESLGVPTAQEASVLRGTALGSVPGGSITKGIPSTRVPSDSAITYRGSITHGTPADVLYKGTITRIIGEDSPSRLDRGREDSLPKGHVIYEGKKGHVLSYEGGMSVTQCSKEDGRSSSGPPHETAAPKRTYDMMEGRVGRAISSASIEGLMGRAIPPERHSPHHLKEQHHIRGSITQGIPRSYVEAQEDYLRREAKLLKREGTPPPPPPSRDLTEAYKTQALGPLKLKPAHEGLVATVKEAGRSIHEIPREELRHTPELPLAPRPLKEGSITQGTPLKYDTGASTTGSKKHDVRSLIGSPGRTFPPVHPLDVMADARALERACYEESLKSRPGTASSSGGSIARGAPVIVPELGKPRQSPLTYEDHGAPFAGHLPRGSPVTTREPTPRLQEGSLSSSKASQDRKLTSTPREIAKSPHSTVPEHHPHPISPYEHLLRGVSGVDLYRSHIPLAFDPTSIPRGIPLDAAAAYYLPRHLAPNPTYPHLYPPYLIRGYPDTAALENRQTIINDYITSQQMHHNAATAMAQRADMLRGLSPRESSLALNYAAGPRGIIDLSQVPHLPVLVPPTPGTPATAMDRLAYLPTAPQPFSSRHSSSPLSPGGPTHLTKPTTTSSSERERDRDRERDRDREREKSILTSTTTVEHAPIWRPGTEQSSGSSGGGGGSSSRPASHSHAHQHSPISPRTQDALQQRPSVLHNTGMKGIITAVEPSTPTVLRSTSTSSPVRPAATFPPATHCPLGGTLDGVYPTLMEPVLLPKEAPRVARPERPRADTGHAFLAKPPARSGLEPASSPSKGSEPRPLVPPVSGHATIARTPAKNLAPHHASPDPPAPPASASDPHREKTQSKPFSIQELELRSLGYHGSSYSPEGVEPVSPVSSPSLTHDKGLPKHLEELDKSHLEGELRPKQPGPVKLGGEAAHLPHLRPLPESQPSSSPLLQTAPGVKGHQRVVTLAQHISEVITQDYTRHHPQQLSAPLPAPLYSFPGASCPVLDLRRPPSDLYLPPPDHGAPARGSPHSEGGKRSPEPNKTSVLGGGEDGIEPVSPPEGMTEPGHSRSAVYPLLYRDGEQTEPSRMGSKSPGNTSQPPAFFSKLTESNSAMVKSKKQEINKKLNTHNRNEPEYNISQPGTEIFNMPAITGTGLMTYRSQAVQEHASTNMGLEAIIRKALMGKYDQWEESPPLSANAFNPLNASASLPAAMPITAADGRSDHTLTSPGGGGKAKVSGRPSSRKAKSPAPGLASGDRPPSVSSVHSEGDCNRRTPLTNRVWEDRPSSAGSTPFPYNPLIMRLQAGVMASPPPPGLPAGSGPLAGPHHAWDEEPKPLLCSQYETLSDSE

Ephrin type-A receptor 4 = Ephrin type-A receptor 4 (Mus musculus, UniProt Q03137); assay: EphA4 ligand-binding antagonists – biochemical, colorimetric, mouse EphA4, primary screen (AID 689); format: functional
Chain of Ephrin type-A receptor 4 (Q03137 whole entry): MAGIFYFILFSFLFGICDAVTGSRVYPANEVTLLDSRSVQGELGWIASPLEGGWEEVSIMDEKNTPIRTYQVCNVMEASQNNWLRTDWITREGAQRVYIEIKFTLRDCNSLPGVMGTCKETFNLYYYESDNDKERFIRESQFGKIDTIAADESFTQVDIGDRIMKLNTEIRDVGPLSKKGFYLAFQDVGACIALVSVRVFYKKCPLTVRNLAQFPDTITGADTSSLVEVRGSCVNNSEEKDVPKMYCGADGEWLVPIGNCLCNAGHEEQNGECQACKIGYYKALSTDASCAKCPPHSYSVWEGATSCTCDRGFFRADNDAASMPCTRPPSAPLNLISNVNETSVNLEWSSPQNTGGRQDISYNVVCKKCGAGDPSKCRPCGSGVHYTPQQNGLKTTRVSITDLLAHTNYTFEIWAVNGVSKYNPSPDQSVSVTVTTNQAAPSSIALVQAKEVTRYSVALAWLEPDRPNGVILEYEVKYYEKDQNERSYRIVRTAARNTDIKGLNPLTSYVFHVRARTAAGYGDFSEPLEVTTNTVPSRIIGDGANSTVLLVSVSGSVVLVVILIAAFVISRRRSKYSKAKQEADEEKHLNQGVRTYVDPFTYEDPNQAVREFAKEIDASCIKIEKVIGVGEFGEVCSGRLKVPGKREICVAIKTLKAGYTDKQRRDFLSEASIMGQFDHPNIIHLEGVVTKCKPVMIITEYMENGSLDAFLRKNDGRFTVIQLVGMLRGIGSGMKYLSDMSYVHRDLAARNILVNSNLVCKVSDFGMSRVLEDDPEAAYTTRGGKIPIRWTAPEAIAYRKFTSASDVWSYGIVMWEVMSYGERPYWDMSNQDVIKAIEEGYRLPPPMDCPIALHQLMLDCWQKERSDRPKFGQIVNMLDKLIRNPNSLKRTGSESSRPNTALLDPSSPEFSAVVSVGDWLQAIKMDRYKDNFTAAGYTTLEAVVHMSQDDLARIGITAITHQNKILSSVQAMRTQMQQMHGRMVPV

[4] = target: Eukaryotic translation initiation factor 4E (Mus musculus, UniProt P63073); assay: blockers of eIF4G binding by eIF4E – biochemical, TR-FRET, dose response (AID 855); format: functional;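 also: potency for disrupting eIF4E binding to eIF4GI seen as loss of FRET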
Chain of Eukaryotic translation initiation factor 4E (P63073 whole entry): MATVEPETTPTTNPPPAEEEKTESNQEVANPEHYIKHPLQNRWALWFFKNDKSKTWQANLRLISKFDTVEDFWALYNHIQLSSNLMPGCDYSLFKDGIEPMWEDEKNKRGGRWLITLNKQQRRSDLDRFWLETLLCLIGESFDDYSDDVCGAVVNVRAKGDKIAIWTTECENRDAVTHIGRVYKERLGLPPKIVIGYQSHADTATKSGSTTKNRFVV

[5] = HEK-293T cell viability reduction – luminescence, B-cell screen hits, cytotoxicity control for BCR NF-kB inhibitor project, dose response (AID 489021); format: functional, cell-based;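 also: HEK-293T cells carrying an NF-kB luciferase reporter; cells exposed to compound for about 14 hours before viability readout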
[6] = target: T3, Replicative DNA helicase DnaB (Mycobacterium tuberculosis, UniProt P9WMR3); assay: DnaB intein splicing inhibitors, dose response, biochemical, cell-free fluorescence (AID 449749); format: functional
T3 sequence (P9WMR3 whole entry): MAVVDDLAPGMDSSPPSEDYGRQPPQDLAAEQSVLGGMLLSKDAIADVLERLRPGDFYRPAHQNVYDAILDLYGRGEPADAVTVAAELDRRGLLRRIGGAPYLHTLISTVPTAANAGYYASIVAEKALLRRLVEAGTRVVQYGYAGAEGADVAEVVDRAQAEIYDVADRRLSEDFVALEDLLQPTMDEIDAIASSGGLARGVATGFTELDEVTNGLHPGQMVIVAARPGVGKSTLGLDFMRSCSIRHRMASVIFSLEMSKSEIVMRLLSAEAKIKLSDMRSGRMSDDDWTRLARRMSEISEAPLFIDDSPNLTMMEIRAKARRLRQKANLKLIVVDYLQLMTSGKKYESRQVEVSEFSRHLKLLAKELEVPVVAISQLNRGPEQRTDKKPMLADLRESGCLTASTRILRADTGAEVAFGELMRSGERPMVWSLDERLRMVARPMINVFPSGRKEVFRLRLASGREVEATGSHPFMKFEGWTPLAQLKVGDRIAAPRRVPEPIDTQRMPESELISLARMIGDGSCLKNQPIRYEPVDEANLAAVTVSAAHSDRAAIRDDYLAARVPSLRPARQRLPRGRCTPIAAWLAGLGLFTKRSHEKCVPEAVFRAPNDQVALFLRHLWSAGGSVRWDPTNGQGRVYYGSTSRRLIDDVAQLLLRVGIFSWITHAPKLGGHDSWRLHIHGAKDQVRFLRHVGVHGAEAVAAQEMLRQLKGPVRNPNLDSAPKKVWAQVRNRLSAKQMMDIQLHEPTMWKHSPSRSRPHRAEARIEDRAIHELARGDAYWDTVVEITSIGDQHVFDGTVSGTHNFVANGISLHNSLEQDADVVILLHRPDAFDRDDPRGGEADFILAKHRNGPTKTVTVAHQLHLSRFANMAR

Protein RecA = target: T4, Protein RecA (Mycobacterium tuberculosis, UniProt P9WHJ3); assay: Fluorescence Cell-Free Homogeneous Dose Retest to Identify Inhibitors of RecA-Intein Splicing Activity. [Related pubchem assays (depositor defined):AID2097, AID2223, AID489010, AID492950]; format: functional
T4 sequence (P9WHJ3 whole entry): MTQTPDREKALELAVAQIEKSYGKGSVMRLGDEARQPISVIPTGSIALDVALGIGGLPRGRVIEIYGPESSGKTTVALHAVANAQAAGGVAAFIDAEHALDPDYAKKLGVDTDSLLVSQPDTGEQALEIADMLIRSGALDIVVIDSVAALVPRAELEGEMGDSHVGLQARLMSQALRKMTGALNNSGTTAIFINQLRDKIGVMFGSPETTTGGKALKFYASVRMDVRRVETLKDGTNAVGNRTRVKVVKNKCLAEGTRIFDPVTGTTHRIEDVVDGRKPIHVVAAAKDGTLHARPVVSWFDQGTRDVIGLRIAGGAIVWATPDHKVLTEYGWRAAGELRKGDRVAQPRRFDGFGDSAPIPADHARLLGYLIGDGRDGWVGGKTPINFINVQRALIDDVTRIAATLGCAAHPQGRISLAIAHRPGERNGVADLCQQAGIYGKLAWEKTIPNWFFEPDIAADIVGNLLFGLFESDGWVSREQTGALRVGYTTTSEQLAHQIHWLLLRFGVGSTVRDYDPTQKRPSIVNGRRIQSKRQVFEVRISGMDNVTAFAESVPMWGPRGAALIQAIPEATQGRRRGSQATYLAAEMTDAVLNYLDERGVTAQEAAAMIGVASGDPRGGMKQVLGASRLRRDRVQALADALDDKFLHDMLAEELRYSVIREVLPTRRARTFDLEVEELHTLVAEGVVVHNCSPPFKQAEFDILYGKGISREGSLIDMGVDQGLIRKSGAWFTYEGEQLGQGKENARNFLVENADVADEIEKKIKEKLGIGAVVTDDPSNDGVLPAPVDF

CHO-K1 = assay: (§1) Counterscreen for antagonists of the orexin 1 receptor (OX1R; HCRTR1): Homogeneous time resolved fluorescence (HTRF)-based cell-based dose response assay to identify antagonists of the parental CHO-K1 cell line. [Related pubchem assays (depositor defined):AID434989, AID435008, AID463079, AID485270, AID492963, AID492964, AID492965, AID493232, AID504699, AID504701]; format: functional; details: Cricetulus griseus
[7] = as §1, with “Fluorescence-based” for “Homogeneous time resolved fluorescence (HTRF)-based”, “cell-based high throughput” for “cell-based”, “CHO” for “CHO-K1”; format: functional
[8] = target: T5, Orexin/Hypocretin receptor type 1 (Homo sapiens, UniProt O43613); assay: Homogeneous Time Resolved Fluorescence (HTRF)-based cell-based high throughput dose response assay for antagonists of the orexin 1 receptor (OX1R; HCRTR1). [Related pubchem assays (depositor defined):AID434989, AID435008, AID463079, AID485270, AID492963, AID492964, AID492965, AID493232, AID504717, AID504718]; format: functional
T5 sequence (O43613 whole entry): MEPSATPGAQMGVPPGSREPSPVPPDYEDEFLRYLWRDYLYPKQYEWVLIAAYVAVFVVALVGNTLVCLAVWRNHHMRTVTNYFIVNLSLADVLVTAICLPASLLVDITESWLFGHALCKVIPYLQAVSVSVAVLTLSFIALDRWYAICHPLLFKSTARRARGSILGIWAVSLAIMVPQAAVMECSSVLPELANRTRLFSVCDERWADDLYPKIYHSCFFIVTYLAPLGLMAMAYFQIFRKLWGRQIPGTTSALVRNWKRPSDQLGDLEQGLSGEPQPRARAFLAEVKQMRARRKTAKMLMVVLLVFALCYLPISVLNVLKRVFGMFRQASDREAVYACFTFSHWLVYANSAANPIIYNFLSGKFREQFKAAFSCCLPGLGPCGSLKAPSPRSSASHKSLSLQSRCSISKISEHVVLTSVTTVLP

[9] = target: T5, Orexin/Hypocretin receptor type 1; assay: Fluorescence-based cell-based high throughput dose response assay for antagonists of the orexin 1 receptor (OX1R; HCRTR1). [Related pubchem assays (depositor defined):AID434989, AID435008, AID463079, AID485270, AID492963, AID492964, AID492965, AID493232, AID504717, AID504718]; format: functional
[10] = target: T6, Carboxy-terminal domain RNA polymerase II polypeptide A small phosphatase 1 (Homo sapiens, UniProt Q9GZU7); assay: CTDSP1 inhibitors, concentration-response, biochemical, absorbance readout, ultra-high-throughput screen actives (AID 540297); format: functional
T6 sequence (Q9GZU7 whole entry): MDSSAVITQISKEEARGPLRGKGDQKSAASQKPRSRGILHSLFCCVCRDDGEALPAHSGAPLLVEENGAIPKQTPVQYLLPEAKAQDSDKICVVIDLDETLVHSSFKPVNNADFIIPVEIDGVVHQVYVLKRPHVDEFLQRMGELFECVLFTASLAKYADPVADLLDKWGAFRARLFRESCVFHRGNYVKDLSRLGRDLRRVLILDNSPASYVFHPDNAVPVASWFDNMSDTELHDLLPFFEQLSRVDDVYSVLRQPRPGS

[11] = target: T7, Heat shock factor protein 1 (Mus musculus, UniProt P38532); assay: decrease of HSF1-responsive luciferase luminescence – cell-based, NIH3T3, dose retest, confirmation (AID 2382); format: functional;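 also: NIH3T3 fibroblasts with HSF1-driven luciferase reporter stressed by proteasome inhibitor MG132; luminescence from HSF1-driven luciferase expression after 8 hours of MG132 stress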
T7 sequence (P38532 whole entry): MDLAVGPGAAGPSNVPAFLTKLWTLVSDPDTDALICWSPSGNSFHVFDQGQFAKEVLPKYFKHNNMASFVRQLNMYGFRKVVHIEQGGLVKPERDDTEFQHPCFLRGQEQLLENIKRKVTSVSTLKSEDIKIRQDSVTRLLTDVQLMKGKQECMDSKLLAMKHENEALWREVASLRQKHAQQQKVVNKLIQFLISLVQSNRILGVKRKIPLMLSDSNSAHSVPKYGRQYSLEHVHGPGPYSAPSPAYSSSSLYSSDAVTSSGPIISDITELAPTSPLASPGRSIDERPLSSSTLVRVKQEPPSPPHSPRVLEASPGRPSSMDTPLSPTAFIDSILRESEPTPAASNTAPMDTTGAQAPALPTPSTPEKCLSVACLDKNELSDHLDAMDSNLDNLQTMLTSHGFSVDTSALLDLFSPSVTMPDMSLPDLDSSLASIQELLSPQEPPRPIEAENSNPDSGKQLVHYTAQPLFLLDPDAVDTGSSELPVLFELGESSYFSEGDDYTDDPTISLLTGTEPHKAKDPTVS

With CC(C)(C)c1ccc(C(=O)Nc2c(C(=O)O)ccc(Cl)c2Cl)cc1 the IC50 (Hexokinase) was > 25 µM (inactive).
For CCOC(=O)CCCn1ncn2c(cc3occc32)c1=O, the AC50 [1] was 12 µM (active).
In the case of COC(=O)Sc1nnc(-c2ccc(Br)cc2)o1, the IC50 [2] is reported as > 39.8 µM (not active), the IC50 [3] is reported as 3.53 µM (active) and the IC50 (Ephrin type-A receptor 4) is reported as 13 µM (active). The IC50 [4] was 30.7 µM (active).
With COc1ccccc1/C=C1\SC(=S)N(CCC(=O)Nc2cccc(O)c2)C1=O the IC50 [5] was 60.6 µM (inactive).
For COc1cc(-c2[nH]nc3c2C(c2ccco2)C(C#N)=C(N)O3)cc(OC)c1OC (stereo not given), the IC50 [5] was > 80 µM (inactive), the AC50 [6] was 6.62 µM (active) and the EC50 (Protein RecA) was 0.531 µM (active).
For O=C1NCC(c2ccccc2)C1C(=O)N/N=C\c1ccc(-c2cccc(Cl)c2Cl)o1 (stereo not given), the IC50 (CHO-K1) was > 66.2 µM (inactive), the IC50 [7] was 24.7 µM (inactive) and the IC50 [8] was 0.648 µM (active). The IC50 [9] was 2.32 µM (active).
With Cc1ccc(-n2nc(-c3ccco3)cc2C(=O)O)c(C)c1 the IC50 [4] was 50 µM (inactive) and the IC50 [10] was 4.94 µM (active).
In the case of CC(C)Cc1ccc(C(=O)Nc2cc(Cl)ccc2C(=O)O)cc1, the IC50 (Hexokinase) is reported as 7.25 µM (active).
In the case of O=C(Nc1cc(Cl)ccc1C(=O)O)c1ccoc1, the IC50 (Hexokinase) is reported as > 25 µM (inactive).
In the case of O=S(=O)(Nc1c(O)ccc2ccccc12)c1cccc2ccccc12, the EC50 [11] is reported as 15.7 µM (active), the IC50 (CHO-K1) is reported as 56.9 µM (inactive) and the IC50 [7] is reported as 39.2 µM (inactive). The IC50 [8] was 2.85 µM (active), the IC50 [9] was 13.1 µM (inactive) and the AC50 [6] was 4.4 µM (active). For the same compound, the EC50 (Protein RecA) was 1.77 µM (active).
